We go through 1 compound from patent US8530385B2, “Herbicidal formulations for combinations of dimethylamine and potassium salts of glyphosate” (Donaghys Industries Limited, priority 2007, dated 2013).

The conditions of this series: laboratory conditions; fully loaded with surfactant. From the text:
Dimethylamine is a flammable gas and generally provided as an aqueous solution at concentrations of about 40%. As such, it is difficult to obtain highly concentrated salts of glyphosate using only DMA solution as starting material.
In contrast to IPA, DMA has a […] flash and boiling point and supplied as 40% solution.

Turning to `CNC.O=C(O)CNCP(=O)(O)O` [DMA glyphosate, dimethylamine salt of glyphosate], the “maximum stable fully loaded concentration of glyphosate” value came to 560 gae/L.
